The structures appear in SMILES notation. Where a name gives a salt, the structure may show the parent alone.

As a reminder, the IC50 is the concentration at which inhibition is half-maximal.

This test deals with T1, human clotting factor VIIa (Homo sapiens, UniProt P08709).
T1 construct: a human clotting factor VIIa (hereinafter, “Factor VIIa”) purified sample; purchased Enzyme Research Laboratories HFVIIa
T1 sequence (P08709 213-466 limits assumed): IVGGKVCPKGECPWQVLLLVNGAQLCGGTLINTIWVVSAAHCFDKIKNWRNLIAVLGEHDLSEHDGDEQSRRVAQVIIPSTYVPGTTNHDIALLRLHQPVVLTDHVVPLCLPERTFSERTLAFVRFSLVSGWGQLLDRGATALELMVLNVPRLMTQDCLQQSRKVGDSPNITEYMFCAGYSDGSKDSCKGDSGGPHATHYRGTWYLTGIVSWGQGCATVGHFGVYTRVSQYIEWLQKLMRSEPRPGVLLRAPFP
T1 sequence (P08709 61-212 limits assumed): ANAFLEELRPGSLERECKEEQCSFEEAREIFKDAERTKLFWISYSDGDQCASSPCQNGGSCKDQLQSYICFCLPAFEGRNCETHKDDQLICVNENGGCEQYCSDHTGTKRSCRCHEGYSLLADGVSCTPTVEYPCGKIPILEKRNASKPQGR
T1 sequence (P13726 33-295 partner): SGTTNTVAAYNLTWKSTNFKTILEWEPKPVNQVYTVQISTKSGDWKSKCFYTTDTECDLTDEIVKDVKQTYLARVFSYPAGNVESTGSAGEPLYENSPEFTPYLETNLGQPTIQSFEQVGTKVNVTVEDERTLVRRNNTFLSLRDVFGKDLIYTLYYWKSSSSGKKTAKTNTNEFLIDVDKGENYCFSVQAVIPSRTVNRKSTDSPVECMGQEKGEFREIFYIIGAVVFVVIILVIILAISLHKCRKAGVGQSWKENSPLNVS
The experiment in a line: Inhibitory activity against clotting factor VIIa (chromogenic substrate Spectrozyme FVIIa, TF/Factor VIIa enzyme solution). It counts as biochemical. The conditions noted are these: human Factor VIIa 5 nmol/L with human TF 10 nmol/L, room temperature 40 minutes, 405 nm. In a few lines:
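Human Factor VIIa (5 nmol/L) with human TF (10 nmol/L) in Tris-BSA buffer pH 7.4 containing 15 mmol/L CaCl2 and cephalin, with Spectrozyme FVIIa substrate. Reaction 40 min at room temperature; 4-nitroanilide read at 405 nm. IC50 by non-linear regression over 100 μmol/L–0.1 nmol/L.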
`Cc1cc(O[C@@H]2CCOC2)cc(C(Nc2ccc(C(=N)N)cc2)c2nn(-c3ncccn3)c(=O)[nH]2)c1` (mixture of isomers) [Example 59, 4-[((R) and (S)-{3-methyl-5-[(R)-(tetrahydrofuran-3-yl)oxy]phenyl}-(5-oxo-1-pyrimidin-2-yl-4,5-dihydro-1H-[1,2,4]triazol-3-yl)methyl)amino]benzamidine acetate] displayed an IC50 of 4.5 nM. This lies in the single-digit nanomolar range.

With `COc1cc(OCCO)c(F)c(C(Nc2ccc(C(=N)N)cc2)c2nn(-c3ncccn3)c(=O)[nH]2)c1` (racemic) [Example 153, 4-({[2-fluoro-3-(2-hydroxyethoxy)-5-methoxyphenyl]-(5-oxo-1-pyrimidin-2-yl-4,5-dihydro-1H-[1,2,4]triazol-3-yl)methyl}amino)benzamidine], the IC50 came to 4.8 nM.

On to `COc1cc(C(Nc2ccc(C(=N)N)cc2)c2nn(-c3ncccc3C(=O)O)c(=O)[nH]2)c(F)c2c1OCCCO2` (racemic) [Example 176, (R) and (S)-2-{3-[(4-carbamimidoylphenylamino)-(6-fluoro-9-methoxy-3,4-dihydro-2H-benzo[b][1,4]dioxepin-7-yl)methyl]-5-oxo-4,5-dihydro-[1,2,4]triazol-1-yl}nicotinic acid], for which the IC50 worked out at 6.1 nM.

On to `COc1cc(C(Nc2ccc(C(=N)N)cc2)c2nn(-c3ncccn3)c(=O)[nH]2)cc(OC)c1OC` (stereo not shown) [Example 86, 4-{[(5-oxo-1-pyrimidin-2-yl-4,5-dihydro-1H-[1,2,4]triazol-3-yl)-(3,4,5-trimethoxyphenyl)methyl]amino}benzamidine acetate], for which the IC50 was found to be 51.7 nM. This IC50 lies about 8.5-fold higher than the previous one.

As to `COc1cc(C(Nc2ccc(C(=N)N)cc2)c2nn(-c3ncsc3C(=O)O)c(=O)[nH]2)c(F)c2c1OCOC2` (racemic) [Example 165, (R) and (S)-4-{3-[(4-carbamimidoylphenylamino)-(5-fluoro-8-methoxy-4H-benzo[1,3]dioxin-6-yl)methyl]-5-oxo-4,5-dihydro-[1,2,4]triazol-1-yl}thiazole-5-carboxylic acid], it took 25.8 nM to reach half-maximal inhibition (IC50).

`COc1cc(C(Nc2ccc(C(=N)N)cc2)c2nn(-c3ncccn3)c(=O)[nH]2)cc(C(C)O)c1OC` (stereo not shown) [Example 25, 4-({[3-(1-hydroxyethyl)-4,5-dimethoxyphenyl]-(5-oxo-1-pyrimidin-2-yl-4,5-dihydro-1H-[1,2,4]triazol-3-yl)methyl}amino)benzamidine acetate] had an IC50 of 15.1 nM. Against the preceding compound, the IC50 is about 1.7-fold lower.

Consider `COCCOc1cc(OC)cc(C(Nc2ccc(C(=N)N)cc2)c2nn(-c3cccnn3)c(=O)[nH]2)c1` (racemic) [Example 7, (R) and (S)-4-({[3-methoxy-5-(2-methoxyethoxy)phenyl]-(5-oxo-1-pyridazin-3-yl-4,5-dihydro-1H-[1,2,4]triazol-3-yl)methyl}amino)benzamidine acetate], for which the IC50 amounted to 9.9 nM.

`COc1cc(OC2CCOCC2)cc(C(Nc2ccc(C(=N)N)cc2)c2nn(-c3ncccn3)c(=O)[nH]2)c1` (racemic) [Example 63, (R) and (S)-4-({[3-methoxy-5-(tetrahydropyran-4-yloxy)phenyl]-(5-oxo-1-pyrimidin-2-yl-4,5-dihydro-1H-[1,2,4]triazol-3-yl)methyl}amino)benzamidine acetate] gave an IC50 of 3.9 nM. Against the preceding compound, the IC50 is about 2.5-fold lower.

Turning to `COc1cc(C(Nc2ccc(C(=N)N)cc2)c2nn(-c3ncccn3)c(=O)[nH]2)cc(F)c1OC` (racemic) [Example 116, (R) and (S)-4-{[(3-fluoro-4,5-dimethoxyphenyl)-(5-oxo-1-pyrimidin-2-yl-4,5-dihydro-1H-[1,2,4]triazol-3-yl)methyl]amino}benzamidine acetate], the IC50 was found to be 11.9 nM. Against the preceding compound, the IC50 is about 3.1-fold higher.

`COc1cc(OCCF)c(F)c(C(Nc2ccc(C(=N)N)cc2)c2nn(-c3ncccn3)c(=O)[nH]2)c1` (racemic) [Example 3, (R) and (S)-4-({[2-fluoro-3-(2-fluoroethoxy)-5-methoxyphenyl]-(5-oxo-1-pyrimidin-2-yl-4,5-dihydro-1H-[1,2,4]triazol-3-yl)methyl}amino)benzamidine acetate] registered an IC50 of 4.8 nM.

As for `COc1cc(C(Nc2ccc(C(=N)N)cc2)c2nn(-c3ncccn3)c(=O)[nH]2)cc(CC#N)c1OC` (racemic) [Example 26, (R) and (S)-4-{[(3-cyanomethyl-4,5-dimethoxyphenyl)-(5-oxo-1-pyrimidin-2-yl-4,5-dihydro-1H-[1,2,4]triazol-3-yl)methyl]amino}benzamidine acetate], the IC50 was found to be 5.4 nM.

`COc1ccc(C(Nc2ccc(C(=N)N)cc2)c2nn(-c3ccsc3C(=O)O)c(=O)[nH]2)cc1OC` (racemic) [Example 155, (R) and (S)-3-{3-[(4-carbamimidoylphenylamino)-(3,4-dimethoxyphenyl)methyl]-5-oxo-4,5-dihydro[1,2,4]triazol-1-yl}thiophene-2-carboxylic acid acetate] came in with an IC50 of 2.3 nM. Against the preceding compound, the IC50 is about 2.3-fold lower.

In turn, `COc1cc(OC)c(F)c(C(Nc2ccc(C(=N)N)cc2)c2nn(-c3ncccc3N)c(=O)[nH]2)c1` (racemic) [Example 137, (R) and (S)-4-({[1-(3-aminopyridin-2-yl)-5-oxo-4,5-dihydro-1H-[1,2,4]triazol-3-yl]-(2-fluoro-3,5-dimethoxyphenyl)methyl}amino)benzamidine acetate] gave an IC50 of 10.3 nM. This IC50 is about 4.5-fold higher than that of the compound before.

Compound `COc1cc(OCCO)c(F)c(C(Nc2ccc(C(=N)N)cc2)c2nn(-c3ncsc3C(=O)O)c(=O)[nH]2)c1` (racemic) [Example 167, (R) and (S)-4-(3-{(4-carbamimidoylphenylamino)-[2-fluoro-3-(2-hydroxyethoxy)-5-methoxyphenyl]methyl}-5-oxo-4,5-dihydro[1,2,4]triazol-1-yl)thiazole-5-carboxylic acid] yielded an IC50 of 11.1 nM. The IC50 values of the last two compounds are within 1.5-fold of each other.

`Cc1cc(C(Nc2ccc(C(=N)N)cc2)c2nn(-c3ncccn3)c(=O)[nH]2)cc2c1OCOC2` (racemic) [Example 97, 4-{[(R) and (S)-(8-methyl-4H-benzo[1,3]dioxin-6-yl)-(5-oxo-1-pyrimidin-2-yl-4,5-dihydro-1H-[1,2,4]triazol-3-yl)methyl]amino}benzamidine acetate]: 11.3 nM corresponded to half-maximal inhibition (IC50).

Take `COc1cc(F)c(C(Nc2ccc(C(=N)N)cc2)c2nn(-c3ncccc3F)c(=O)[nH]2)cc1OC` (stereo not shown) [Example 125, 4-({(2-fluoro-4,5-dimethoxyphenyl)-[1-(3-fluoropyridin-2-yl)-5-oxo-4,5-dihydro-1H-[1,2,4]triazol-3-yl]methyl}amino)benzamidine acetate]: half-maximal inhibition (IC50) was put at 10.3 nM. This IC50 and that of the compound before are within 1.5-fold of each other.

`COc1cc(C(Nc2ccc(C(=N)N)c(F)c2)c2nn(-c3ccsc3C(=O)O)c(=O)[nH]2)c(F)c2c1OCCO2` (racemic) [Example 231, 3-{3-[(4-Carbamimidoyl-3-fluorophenylamino)-(5-fluoro-8-methoxy-2,3-dihydrobenzo[1,4]dioxin-6-yl)methyl]-5-oxo-4,5-dihydro-[1,2,4]triazol-1-yl}thiophene-2-carboxylic acid] came in with an IC50 of 6.5 nM.

The compound `COc1cc(F)c(C(Nc2ccc(C(=N)N)cc2)c2nn(-c3ncccc3OC)c(=O)[nH]2)cc1OC` (stereo not shown) [Example 124, 4-({(2-fluoro-4,5-dimethoxyphenyl)-[1-(3-methoxypyridin-2-yl)-5-oxo-4,5-dihydro-1H-[1,2,4]triazol-3-yl]methyl}amino)benzamidine acetate] gave an IC50 of 10 nM.

`COc1ccccc1-n1nc(C(Nc2ccc(C(=N)N)cc2)c2cc(C)cc(OC)c2F)[nH]c1=O` (stereo not shown) [Example 14, 4-({(2-fluoro-3-methoxy-5-methylphenyl)-[1-(2-methoxyphenyl)-5-oxo-4,5-dihydro-1H-[1,2,4]triazol-3-yl]methyl}amino)benzamidine trifluoroacetate]: the IC50 worked out at 5.9 nM. This IC50 lies about 1.7-fold lower than the previous one.

In the case of `CCOc1cccc(C(Nc2ccc(C(=N)N)cc2)c2nn(-c3ncccn3)c(=O)[nH]2)c1` (stereo not shown) [Example 90, 4-{[(3-ethoxyphenyl)-(5-oxo-1-pyrimidin-2-yl-4,5-dihydro-1H-[1,2,4]triazol-3-yl)methyl]amino}benzamidine acetate], the IC50 was found to be 66.6 nM.

In turn, `COc1cc(OCCF)cc(C(Nc2ccc(C(=N)N)cc2)c2nn(-c3ncccn3)c(=O)[nH]2)c1` (racemic) [Example 61, (R) and (S)-4-({[3-(2-fluoroethoxy)-5-methoxyphenyl]-(5-oxo-1-pyrimidin-2-yl-4,5-dihydro-1H-[1,2,4]triazol-3-yl)methyl}amino)benzamidine acetate] had an IC50 of 5.6 nM.

In the case of `COc1cc(OCCF)c(F)c(C(Nc2ccc(C(=N)N)cc2)c2nn(-c3cccc(N)n3)c(=O)[nH]2)c1` (stereo not shown) [Example 51, 4-({[1-(6-aminopyridin-2-yl)-5-oxo-4,5-dihydro-1H-[1,2,4]triazol-3-yl]-[2-fluoro-3-(2-fluoroethoxy)-5-methoxyphenyl]methyl}amino)benzamidine trifluoroacetate], it took 5.1 nM to reach half-maximal inhibition (IC50). The IC50 values of the last two compounds are within 1.5-fold of each other.

`COc1cc(OCCO)c(F)c(C(Nc2ccc(C(=N)N)cc2)c2nn(-c3ncccc3N)c(=O)[nH]2)c1` (stereo not shown) [Example 200, 4-({[1-(3-Aminopyridin-2-yl)-5-oxo-4,5-dihydro-1H-[1,2,4]triazol-3-yl]-[2-fluoro-3-(2-hydroxyethoxy)-5-methoxyphenyl]methyl}amino)benzamidine]: the IC50 is 11.3 nM.

For `COc1cc(C(Nc2ccc(C(=N)N)cc2)c2nn(-c3ncccn3)c(=O)[nH]2)cc(OC)n1` (racemic) [Example 54, (R) and (S)-4-{[(2,6-dimethoxypyridin-4-yl)-(5-oxo-1-pyrimidin-2-yl-4,5-dihydro-1H-[1,2,4]triazol-3-yl)methyl]amino}benzamidine acetate], the IC50 turned out to be 18.7 nM.

As to `COc1cc(C(Nc2ccc(C(=N)N)cc2)c2nn(-c3cnccn3)c(=O)[nH]2)cc2c1OCOC2` (racemic) [Example 102, 4-{[(R) and (S)-(8-methoxy-4H-benzo[1,3]dioxin-6-yl)-(5-oxo-1-pyrazin-2-yl-4,5-dihydro-1H-[1,2,4]triazol-3-yl)methyl]amino}benzamidine acetate], 11.5 nM corresponded to half-maximal inhibition (IC50). Compared with the last compound, the IC50 is about 1.6-fold lower.

Values taken from patent US7816522B2, “Triazolone derivatives” (Eisai Co., Ltd., priority 2006, dated 2010).
